Test results taken from patent publication US10500301B2, “Agent for salting out active principles in dressings containing at least one of fatty substance” (URGO RECHERCHE INNOVATION ET DEVELOPPEMENT, priority 2007, dated 2019).

Key:
[1] = Release of the active substance from interface dressings into physiological saline solution, HPLC assay; type: physicochemical; conditions: Sepinov EMT 10 versus Montanox 80 as releasing agent in interface dressings, irrespective of the active substance
Method: In the case of interface dressings, prepared from the masses of examples 1 to 4 and 13 to 18, samples of 25 cm^2 of dressing (cut with a calibrated punch and precisely weighed) were introduced into an Erlenmeyer flask containing 10 ml of physiological saline solution. The glassware, hermetically sealed, was placed in an incubator at 37° C. for 24 h. The supernatant was removed and filtered. The amount of active substance was assayed by HPLC (high performance liquid chromatography) according to the methods described below.
The following conditions for assaying by high performance liquid chromatography (HPLC) were used: […]
The detection threshold for the potassium sucrose octasulfate was 0.06 mg/ml. When no peak was detected, the result was increased by the detection threshold. […]
The detection threshold for the silver sulfadiazine was 0.0006 mg/ml. When no peak was detected, the result was increased by the detection threshold.
• A calibration straight line was plotted using the calibration points, and the equation of the straight line y=ax+b (r^2>0.999), in which y=surface area under the peak x=concentration of the standard (in mg/ml) r^2=determination coefficient, was calculated. • The content of potassium sucrose octasulfate or silver sulfadiazine (x) was calculated. […]
The percentage of release of the active substance is calculated according to the following formula: […]

[2] = system: normal human dermal fibroblasts (NHDF) R9PF2; experiment: Effect of dressings on fibroblast cultures (MTT test, tritiated thymidine incorporation); type: cell-based; conditions: releasing agent in dressings
Method: • Type: pool of normal human dermal fibroblasts (NHDF) R9PF2 • Culture: 37° C., 5% CO2 Culture Medium: • DMEM (Dulbecco's Modified Eagle Medium, Invitrogen 21969035) • 2 mM L-glutamine (Invitrogen 25030024) • 50 UI/ml penicillin, 50 μg/ml streptomycin (Invitrogen 15070063) • 10% fetal calf serum (v/v, Invitrogen 10270098). Products Tested:
Dressings according to examples 1 and 23 were cut to the size of the wells and tested.
The fibroblasts were seeded at confluence in a 12-well plate.
Pieces of each dressing were cut to a size of 1.4 cm×1.4 cm (i.e. 1.96 cm^2), applied to the surface of the fibroblasts and held in place using a plug. A control without dressing but with a plug, and also a control without dressing and without plug were carried out.
The cells were then incubated for 48 hours, 96 hours and 168 hours (7 days) at 37° C. and 5% CO2. For each incubation time, the metabolic activity was measured using a standard MTT test, which accounts for the mitochondrial dehydrogenases activity. Tritiated thymidine ([methyl-3H]-thymidine, Amersham TRK 686 2.5 μCi/ml final concentration) was added during the last 24 hours of incubation, and then the DNA of the cells of the cell layers was extracted and purified and the radioactivity incorporated into the DNA was counted using a scintillation counter.
All experiments were carried out in triplicate. […]

For polysorbate 80, the “Release of the active substance with the releasing agent, comparison in words” value [1] was “substantially the same release of the active substance” and the “Effect on fibroblasts (toxicity / proliferation), in words” value [2] was “exhibits toxicity with respect to these cells”.
